Experimental data as given in article PMC9601613, “Development of a Fluorescence Polarization Assay for Multi-Determination of 10 Aminoglycosides in Pork Muscle Sample Based on Ribosomal Protein S12 and Studying Its Recognition Mechanism” (Foods, 2022).

Experiments:
[1] = biological target: T1, RpsL12 (ribosomal protein S12) (Lysinibacillus sphaericus, UniProt B1HMZ3); assay: fluorescence polarization competition with tracer STR-FITC; assay type: binding
T1 construct: gene rpsL; isolated ribosomal protein without rRNA; 426 bp gene in pET32a(+), purified from soluble fraction of E. coli BL21
T1 sequence (B1HMZ3 1-139): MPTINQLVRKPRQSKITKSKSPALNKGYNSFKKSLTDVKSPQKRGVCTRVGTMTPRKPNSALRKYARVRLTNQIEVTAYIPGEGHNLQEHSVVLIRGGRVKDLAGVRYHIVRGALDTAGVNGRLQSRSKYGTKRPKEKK
From the text: fluorescence polarization competition with tracer STR-FITC on RpsL12 (ribosomal protein S12)

[2] = biological target: T1, RpsL12 (ribosomal protein S12); assay: biochemical; design: surface plasmon resonance, binding kinetics and equilibrium dissociation constant of aminoglycosides to RpsL12; details: for kon: read-out: Ka; for koff: read-out: Kd
Experimental: The affinities of the RpsL12 for the 10 AGs were determined by using the surface plasmon resonance technique (SPR), and the assay procedures were performed according to our recent report (see Supplementary Materials). During the SPR test, the association constant (Ka), dissociation constant (Kd), and equilibrium dissociation constant (KD = Kd/Ka) for the 10 AGs were determined. Furthermore, the absolute affinity constants (KA=Log2(KD)) for the 10 AGs were also calculated, which were used to conveniently compare their affinities. For confirmation of the molecular docking results, the receptor affinities for the 10 drugs were also determined by SPR. […] The recognition mechanisms of RpsL12 protein for AGs reported in the present study were more comprehensive than the previous report. The recombinant plasmids were synthesized at Sangon Biotech Co., Ltd. (Shanghai, China) by inserting the RpsL12 gene of Lysinibacillus sphaericus (GenBank ID: AHC30887.1) into the express vector pET32a(+). The plasmids containing the express vector pET32a-RpsL12 were transformed into BL21 (D3) for acculturation, and the gene products in the positive colonies were characterized by a polymerase chain reaction and DNA sequencing. Then the RpsL12 was expressed with the same procedures as those described in our recent report (see Supplementary Materials), and the obtained product was analyzed with SDS-PAGE electrophoresis and Western blotting.

[3] = biological target: T1, RpsL12 (ribosomal protein S12); assay: surface plasmon resonance; assay type: binding; details: log2-transformed affinity, not an association constant in 1/M; sign as printed; KD itself only in supplement
From the text: surface plasmon resonance on RpsL12 (ribosomal protein S12)

Structure (SMILES)	IC50 [1] [µM]	Kd [2] [µM]	kon [2] [M⁻¹ s⁻¹]	koff [2] [s⁻¹]	KA [3]
NCC[C@H](O)C(=O)N[C@@H]1C[C@H](N)[C@@H](O[C@H]2O[C@H](CN)[C@@H](O)[C@H](O)[C@H]2O)[C@H](O)[C@H]1O[C@H]1O[C@H](CO)[C@@H](O)[C@H](N)[C@H]1O [amikacin]	0.116	0.0425	1690	7.2e-05	24.487
CN[C@@H]1[C@@H](O[C@H]2O[C@H](CO)[C@@H](N)[C@H](O)[C@H]2O)O[C@H]2C[C@@H](N)[C@@H](O[C@H]3[C@H](O)[C@@H](O)[C@H](N)C[C@@H]3N)O[C@@H]2[C@@H]1O [apramycin]	–	–	20200	0.000281	–
CCN[C@@H]1C[C@H](N)[C@@H](O[C@H]2O[C@H](CN)CC[C@H]2N)[C@H](O)[C@H]1O[C@H]1OC[C@](C)(O)[C@H](NC)[C@H]1O [etimicin]	0.129	381	51.2	0.0195	11.358
CNC(C)[C@@H]1CC[C@@H](N)[C@@H](O[C@H]2[C@H](O)[C@@H](O[C@H]3OC[C@](C)(O)[C@H](NC)[C@H]3O)[C@H](N)C[C@@H]2N)O1 (stereo partly drawn) [gentamicin]	–	4.72	2180	0.0103	–
CNC[C@@H]1CC[C@@H](N)[C@@H](O[C@H]2[C@H](O)[C@@H](O[C@H]3OC[C@](C)(O)[C@H](NC)[C@H]3O)[C@H](N)C[C@@H]2N)O1 [micronomicin]	0.137	38.5	141	0.00543	14.666
NC[C@@H]1O[C@H](O[C@H]2[C@@H](O)[C@H](O[C@@H]3[C@@H](O)[C@H](N)C[C@H](N)[C@H]3O[C@H]3O[C@H](CN)[C@@H](O)[C@H](O)[C@H]3N)O[C@@H]2CO)[C@H](N)[C@@H](O)[C@@H]1O [neomycin]	0.0786	0.0149	3150	4.7e-05	25.997
CCNC1CC(N)C(OC2OC(CN)=CCC2N)C(O)C1OC1OCC(C)(O)C(NC)C1O (stereo not drawn) [netimicin]	–	–	37.1	0.00141	–
NC[C@@H]1O[C@H](O[C@H]2[C@@H](O)[C@H](O[C@@H]3[C@@H](O)[C@H](N)C[C@H](N)[C@H]3O[C@H]3O[C@H](CO)[C@@H](O)[C@H](O)[C@H]3N)O[C@@H]2CO)[C@H](N)[C@@H](O)[C@@H]1O [paromomycin]	0.117	0.0661	263000	0.0174	23.851
CN[C@@H]1[C@H](O)[C@H](NC)[C@H]2O[C@@]3(O)C(=O)C[C@@H](C)O[C@H]3O[C@@H]2[C@H]1O [spectinomycin]	0.188	0.0639	211000	0.0135	23.900
CN[C@@H]1[C@H](O[C@H]2[C@H](O[C@H]3[C@H](O)[C@@H](O)[C@H](N=C(N)N)[C@@H](O)[C@@H]3N=C(N)N)O[C@@H](C)[C@]2(O)C=O)O[C@@H](CO)[C@H](O)[C@H]1O [streptomycin]	0.102	0.0375	8200	0.000307	24.670
